According to ChEMBL document CHEMBL1156052, “Discovery of 1-[4-(3-chlorophenylamino)-1-methyl-1H-pyrrolo[3,2-c]pyridin-7-yl]-1-morpholin-4-ylmethanone (GSK554418A), a brain penetrant 5-azaindole CB2 agonist for the treatment of chronic pain” (J Med Chem, 2009):
In brackets after ≈: the same amount, converted by molar mass. Activity calls are given as the source filed them. The calls are words filed in the database; no cut-off is given here.

Columns and labels:
[1] = target: Histamine H2 receptor (Homo sapiens) (UniProt P25021); assay: Binding affinity to human histamine H2 receptor at 1 uM
[2] = Drug level in blood of rat joint model of chronic pain at 3 mg/kg, po BID for 5 days; assay type: ADME, organism-based; design: dose 3 mg/kg, route oral; conditions: read-out: Drug uptake
[3] = target: Beta-1 adrenergic receptor (Homo sapiens) (UniProt P08588); assay: Binding affinity to human beta-1 adrenergic receptor at 1 uM
[4] = target: Sodium-dependent noradrenaline transporter (Homo sapiens) (UniProt P23975); assay: Binding affinity to NET at 1 uM
[5] = Dissociation constant, pKa of the compound; assay type: physicochemical
[6] = target: Cytochrome P450 2D6 (Homo sapiens, UniProt P10635); assay: Inhibition of CYP2D6; assay type: ADME
[7] = Drug level in rat blood at 130 mg/kg, po after 1 hr; assay type: ADME, organism-based; design: dose 130 mg/kg, route oral; conditions: read-out: Drug uptake
[8] = target: Cholecystokinin receptor type A (Homo sapiens) (UniProt P32238); assay: Binding affinity to human CCKA receptor at 1 uM
[9] = Drug level in Sprague-Dawley rat blood at 2 mg/kg, po after 0.8 hrs; assay type: ADME, organism-based; design: dose 2 mg/kg, route oral; conditions: read-out: Drug uptake
[10] = target: Cytochrome P450 3A4 (Homo sapiens, UniProt P08684); assay: Inhibition of CYP3A4; assay type: ADME
[11] = target: Muscarinic acetylcholine receptor M4 (Homo sapiens) (UniProt P08173); assay: Binding affinity to human muscarinic M4 receptor at 1 uM
[12] = Solubility in simulated intestinal fluid at pH 5; assay type: physicochemical
[13] = tested on: Rattus norvegicus; assay: Analgesic activity in po dosed rat joint model of chronic pain assessed as minimum effective dose administered BID for 5 days; assay type: functional; conditions: 120 h, read-out: MED
[14] = target: T1, Cannabinoid receptor 1 (Homo sapiens, UniProt P21554); assay: Agonist activity at human recombinant cannabinoid CB1 receptor expressed in MMY23 Saccharomyces cerevisiae assessed as degradation of FDGlu to fluorescein after 24 hrs by spectrofluorimetry; assay type: functional
[15] = Drug level in blood of rat joint model of chronic pain at 10 mg/kg, po BID for 5 days; assay type: ADME, organism-based; design: dose 10 mg/kg, route oral; conditions: read-out: Drug uptake
[16] = tested on: Rattus norvegicus; assay: Antihyperalgesic activity in po dosed complete Freund's adjuvant rat model of inflammatory pain assessed as reduction of hypersensitivity administered as single dose; assay type: functional
[17] = Ratio of drug level in brain to blood in Sprague-Dawley rat at 0.4 mg/kg/hr, iv up to 12 hrs; assay type: ADME, organism-based; design: route intravenous
[18] = Binding affinity to central benzodiazepine receptor at 1 uM
[19] = Intrinsic clearance in human liver microsomes; assay type: ADME, Microsome
[20] = target: T1, Cannabinoid receptor 1; assay: Agonist activity at human recombinant cannabinoid CB1 receptor expressed in MMY23 Saccharomyces cerevisiae assessed as degradation of FDGlu to fluorescein after 24 hrs by spectrofluorimetry relative to HU210; assay type: functional
[21] = target: 5-hydroxytryptamine receptor 2A (Homo sapiens) (UniProt P28223); assay: Binding affinity to 5HT2A receptor at 1 uM
[22] = target: Adenosine receptor A3 (Homo sapiens) (UniProt P0DMS8); assay: Binding affinity to human adenosine A3 receptor at 1 uM
[23] = Oral bioavailability in Sprague-Dawley rat at 2 mg/kg after 0.8 hrs; assay type: ADME, organism-based; conditions: in vivo
[24] = target: Substance-K receptor (Homo sapiens) (UniProt P21452); assay: Binding affinity to human NK2 receptor at 1 uM
[25] = target: Adenosine receptor A1 (Homo sapiens) (UniProt P30542); assay: Binding affinity to human adenosine A1 receptor at 1 uM
[26] = tested on: Rattus norvegicus; assay: Induction of hypothermia in rat at 130 mg/kg, po after 1 to 5 hrs; assay type: organism-based; design: dose 130 mg/kg, route oral; conditions: in vivo
[27] = target: B2 bradykinin receptor (Homo sapiens) (UniProt P30411); assay: Binding affinity to human bradykinin B2 receptor at 1 uM
[28] = target: T2, Cannabinoid receptor 2 (Homo sapiens, UniProt P34972); assay: Agonist activity at human recombinant cannabinoid CB2 receptor expressed in MMY23 Saccharomyces cerevisiae assessed as degradation of FDGlu to fluorescein after 24 hrs by spectrofluorimetry; assay type: functional
[29] = tested on: Rattus norvegicus; assay: Antihyperalgesic activity in complete Freund's adjuvant rat model of inflammatory pain assessed as reversal of hyperalgesia at 1 mg/kg, po administered as single dose in presence of 15 mg/kg, ip cannabinoid CB2 receptor antagonsit AM630; assay type: functional, organism-based
[30] = target: Muscarinic acetylcholine receptor M2 (Homo sapiens) (UniProt P08172); assay: Binding affinity to human muscarinic M2 receptor at 1 uM
[31] = target: Muscarinic acetylcholine receptor M3 (Homo sapiens) (UniProt P20309); assay: Binding affinity to human muscarinic M3 receptor at 1 uM
[32] = Drug level in rat blood at 130 mg/kg, po after 5 hrs; assay type: ADME, organism-based; design: dose 130 mg/kg, route oral; conditions: read-out: Drug uptake
[33] = target: T2, Cannabinoid receptor 2; assay: Agonist activity at human recombinant cannabinoid CB2 receptor expressed in CHOK1 cells assessed as forskolin-induced cAMP production at 20 uM by luciferase assay relative to HU210; assay type: functional, cell-based; conditions: CHO-K1
[34] = Ratio of drug level in brain to blood in rat 130 mg/kg, po after 3 hrs; assay type: ADME, organism-based; design: dose 130 mg/kg, route oral
[35] = target: Galanin receptor type 2 (Homo sapiens) (UniProt O43603); assay: Binding affinity to human GAL2 receptor at 1 uM
[36] = target: Histamine H1 receptor (Homo sapiens) (UniProt P35367); assay: Binding affinity to human histamine H1 receptor at 1 uM
[37] = target: C-X-C chemokine receptor type 2 (Homo sapiens) (UniProt P25025); assay: Binding affinity to human CXCR2 receptor at 1 uM
[38] = Drug level in blood of complete Freund's adjuvant rat model of inflammatory pain at 0.1 mg/kg, po administered as single dose measured after 1 hr; assay type: ADME, organism-based; design: dose 0.1 mg/kg, route oral; conditions: read-out: Drug uptake
[39] = Efflux ratio of apparent permeability […] side of MDR1-expressing MDCK2 cells after 60 mins by liquid scintillation counting; assay type: ADME, cell-based, Canis lupus familiaris; conditions: dog, mdck-ii, 1 h
[40] = Ratio of drug level in brain to blood in rat 130 mg/kg, po after 1 hr; assay type: ADME, organism-based; design: dose 130 mg/kg, route oral
[41] = target: Kappa-type opioid receptor (Homo sapiens) (UniProt P41145); assay: Binding affinity to kappa opioid receptor at 1 uM
[42] = target: Melanocortin receptor 4 (Homo sapiens) (UniProt P32245); assay: Binding affinity to human MC4 receptor at 1 uM
[43] = target: D(2) dopamine receptor (Homo sapiens) (UniProt P14416); assay: Binding affinity to human dopamine D2S receptor at 1 uM
[44] = tested on: Rattus norvegicus; assay: Antihyperalgesic activity in complete Freund's adjuvant rat model of inflammatory pain assessed as reversal of hypersensitivity at 0.1 mg/kg, po administered as single dose measured after 1 hr; assay type: functional, organism-based; design: dose 0.1 mg/kg
[45] = target: D(1A) dopamine receptor (Homo sapiens) (UniProt P21728); assay: Binding affinity to human dopamine D1 receptor at 1 uM
[46] = target: Endothelin-1 receptor (Homo sapiens) (UniProt P25101); assay: Binding affinity to human ETA receptor at 1 uM
[47] = target: 5-hydroxytryptamine receptor 1A (Homo sapiens) (UniProt P08908); assay: Binding affinity to 5HT1A receptor at 1 uM
[48] = target: Alpha-2A adrenergic receptor (Homo sapiens) (UniProt P08913); assay: Binding affinity to adrenergic alpha2 receptor at 1 uM

T1 sequence (P21554 whole entry): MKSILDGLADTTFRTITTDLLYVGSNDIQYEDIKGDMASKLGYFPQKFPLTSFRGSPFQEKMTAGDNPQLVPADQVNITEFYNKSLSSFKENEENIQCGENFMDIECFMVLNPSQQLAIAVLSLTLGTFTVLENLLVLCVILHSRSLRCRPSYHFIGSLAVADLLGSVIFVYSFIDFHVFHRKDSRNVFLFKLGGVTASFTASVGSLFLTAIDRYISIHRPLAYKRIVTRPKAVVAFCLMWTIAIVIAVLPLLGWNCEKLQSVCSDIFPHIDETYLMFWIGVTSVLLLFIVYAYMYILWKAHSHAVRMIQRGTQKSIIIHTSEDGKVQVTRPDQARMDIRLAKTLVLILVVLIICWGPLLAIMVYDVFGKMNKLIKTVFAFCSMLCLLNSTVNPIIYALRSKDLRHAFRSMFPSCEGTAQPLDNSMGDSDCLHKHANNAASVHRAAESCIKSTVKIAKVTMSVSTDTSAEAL
T2 sequence (P34972 whole entry): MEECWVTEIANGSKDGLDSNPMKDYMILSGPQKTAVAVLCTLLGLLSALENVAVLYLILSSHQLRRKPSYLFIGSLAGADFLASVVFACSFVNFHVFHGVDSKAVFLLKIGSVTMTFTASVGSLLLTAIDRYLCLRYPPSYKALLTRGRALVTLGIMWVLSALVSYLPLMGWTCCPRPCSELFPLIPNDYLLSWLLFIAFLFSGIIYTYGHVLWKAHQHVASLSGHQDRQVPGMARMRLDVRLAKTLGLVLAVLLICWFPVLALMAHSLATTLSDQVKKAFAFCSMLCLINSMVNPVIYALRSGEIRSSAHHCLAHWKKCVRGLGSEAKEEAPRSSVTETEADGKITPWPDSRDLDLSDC
Sequence of Muscarinic acetylcholine receptor M4 (Homo sapiens) (P08173 whole entry): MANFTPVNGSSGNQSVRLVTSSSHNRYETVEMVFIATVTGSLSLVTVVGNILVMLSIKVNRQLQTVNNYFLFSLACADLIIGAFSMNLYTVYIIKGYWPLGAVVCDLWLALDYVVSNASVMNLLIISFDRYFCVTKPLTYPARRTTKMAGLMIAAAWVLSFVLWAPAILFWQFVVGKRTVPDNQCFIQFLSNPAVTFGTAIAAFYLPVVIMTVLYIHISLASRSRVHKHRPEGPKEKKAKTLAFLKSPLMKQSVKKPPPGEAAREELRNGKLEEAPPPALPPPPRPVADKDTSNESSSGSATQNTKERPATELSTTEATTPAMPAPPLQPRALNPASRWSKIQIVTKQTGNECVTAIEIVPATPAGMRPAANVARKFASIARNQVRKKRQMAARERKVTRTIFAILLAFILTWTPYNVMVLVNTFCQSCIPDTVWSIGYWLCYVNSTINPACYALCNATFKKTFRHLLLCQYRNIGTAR
Sequence of Endothelin-1 receptor (Homo sapiens) (P25101 whole entry): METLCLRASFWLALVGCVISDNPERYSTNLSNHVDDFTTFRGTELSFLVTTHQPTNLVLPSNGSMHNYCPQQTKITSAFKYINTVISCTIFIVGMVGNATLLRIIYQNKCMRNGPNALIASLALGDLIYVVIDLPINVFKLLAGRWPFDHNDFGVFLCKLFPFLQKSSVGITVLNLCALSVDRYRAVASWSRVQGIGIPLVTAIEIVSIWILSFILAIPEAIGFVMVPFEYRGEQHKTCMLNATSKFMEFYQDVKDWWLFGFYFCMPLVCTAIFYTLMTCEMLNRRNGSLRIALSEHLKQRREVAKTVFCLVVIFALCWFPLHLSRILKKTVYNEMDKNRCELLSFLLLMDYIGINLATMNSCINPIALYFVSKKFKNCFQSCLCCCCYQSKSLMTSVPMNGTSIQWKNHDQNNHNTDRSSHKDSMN
Sequence of 5-hydroxytryptamine receptor 1A (Homo sapiens) (P08908 whole entry): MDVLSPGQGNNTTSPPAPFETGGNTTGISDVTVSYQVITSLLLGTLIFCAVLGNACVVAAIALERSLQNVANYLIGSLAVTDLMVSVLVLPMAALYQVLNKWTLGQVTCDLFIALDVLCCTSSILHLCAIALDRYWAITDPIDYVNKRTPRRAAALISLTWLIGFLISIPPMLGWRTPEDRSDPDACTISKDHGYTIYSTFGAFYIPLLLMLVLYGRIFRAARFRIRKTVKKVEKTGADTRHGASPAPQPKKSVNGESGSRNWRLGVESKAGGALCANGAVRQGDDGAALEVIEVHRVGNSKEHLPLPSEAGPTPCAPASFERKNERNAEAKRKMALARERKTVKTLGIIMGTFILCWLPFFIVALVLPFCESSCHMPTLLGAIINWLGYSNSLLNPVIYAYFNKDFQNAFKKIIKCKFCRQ
Sequence of Melanocortin receptor 4 (Homo sapiens) (P32245 whole entry): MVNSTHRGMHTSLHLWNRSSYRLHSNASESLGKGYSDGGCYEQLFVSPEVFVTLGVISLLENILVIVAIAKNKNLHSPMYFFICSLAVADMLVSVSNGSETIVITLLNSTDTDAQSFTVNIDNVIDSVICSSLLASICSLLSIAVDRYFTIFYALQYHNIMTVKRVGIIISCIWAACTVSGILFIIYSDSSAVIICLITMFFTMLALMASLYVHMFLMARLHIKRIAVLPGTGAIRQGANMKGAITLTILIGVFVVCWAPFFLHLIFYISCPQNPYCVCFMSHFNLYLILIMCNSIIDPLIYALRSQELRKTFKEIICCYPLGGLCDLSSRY
Sequence of Muscarinic acetylcholine receptor M3 (Homo sapiens) (P20309 whole entry, looked up): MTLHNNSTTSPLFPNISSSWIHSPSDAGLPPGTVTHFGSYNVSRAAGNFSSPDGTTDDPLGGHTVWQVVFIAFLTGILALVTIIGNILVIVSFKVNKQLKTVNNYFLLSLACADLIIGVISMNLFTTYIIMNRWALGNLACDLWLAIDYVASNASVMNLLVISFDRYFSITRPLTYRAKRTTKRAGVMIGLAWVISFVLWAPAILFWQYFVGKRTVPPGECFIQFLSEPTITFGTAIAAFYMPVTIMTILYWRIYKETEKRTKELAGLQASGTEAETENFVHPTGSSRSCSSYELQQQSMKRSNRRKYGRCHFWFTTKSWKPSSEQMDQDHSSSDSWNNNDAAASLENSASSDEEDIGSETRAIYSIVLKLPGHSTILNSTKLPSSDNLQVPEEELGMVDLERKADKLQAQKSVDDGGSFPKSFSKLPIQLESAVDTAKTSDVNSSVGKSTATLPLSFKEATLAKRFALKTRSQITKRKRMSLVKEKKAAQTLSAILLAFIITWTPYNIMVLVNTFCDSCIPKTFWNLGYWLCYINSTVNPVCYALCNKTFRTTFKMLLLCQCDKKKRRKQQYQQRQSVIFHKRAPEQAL
Sequence of Sodium-dependent noradrenaline transporter (Homo sapiens) (P23975 whole entry): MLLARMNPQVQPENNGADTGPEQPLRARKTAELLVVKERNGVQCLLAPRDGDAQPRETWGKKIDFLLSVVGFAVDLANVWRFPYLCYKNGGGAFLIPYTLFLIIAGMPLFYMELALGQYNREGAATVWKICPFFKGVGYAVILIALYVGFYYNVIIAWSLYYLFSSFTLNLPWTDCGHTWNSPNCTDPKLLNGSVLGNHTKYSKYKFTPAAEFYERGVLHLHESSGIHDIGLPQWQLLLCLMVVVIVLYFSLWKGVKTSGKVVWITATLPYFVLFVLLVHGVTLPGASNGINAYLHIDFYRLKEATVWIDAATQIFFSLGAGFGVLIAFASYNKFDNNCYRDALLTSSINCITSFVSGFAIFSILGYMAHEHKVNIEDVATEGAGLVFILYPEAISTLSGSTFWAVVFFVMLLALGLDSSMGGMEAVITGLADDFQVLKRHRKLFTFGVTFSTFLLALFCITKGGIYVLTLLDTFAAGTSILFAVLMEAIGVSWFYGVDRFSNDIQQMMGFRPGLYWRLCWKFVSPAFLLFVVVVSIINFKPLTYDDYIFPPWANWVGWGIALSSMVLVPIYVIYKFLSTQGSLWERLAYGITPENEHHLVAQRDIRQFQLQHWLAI
Sequence of Beta-1 adrenergic receptor (Homo sapiens) (P08588 whole entry, looked up): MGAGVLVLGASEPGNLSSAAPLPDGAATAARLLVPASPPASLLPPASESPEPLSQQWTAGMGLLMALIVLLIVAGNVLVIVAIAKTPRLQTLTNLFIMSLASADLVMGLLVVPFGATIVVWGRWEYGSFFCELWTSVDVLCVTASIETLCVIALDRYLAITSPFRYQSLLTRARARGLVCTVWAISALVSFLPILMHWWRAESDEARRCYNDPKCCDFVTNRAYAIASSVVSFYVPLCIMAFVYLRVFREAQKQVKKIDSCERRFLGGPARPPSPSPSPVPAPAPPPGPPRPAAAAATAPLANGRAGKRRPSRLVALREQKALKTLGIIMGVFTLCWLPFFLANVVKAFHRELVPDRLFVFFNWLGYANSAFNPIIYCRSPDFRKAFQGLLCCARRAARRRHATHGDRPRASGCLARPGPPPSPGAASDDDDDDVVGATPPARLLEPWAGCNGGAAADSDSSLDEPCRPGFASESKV
Sequence of 5-hydroxytryptamine receptor 2A (Homo sapiens) (P28223 whole entry): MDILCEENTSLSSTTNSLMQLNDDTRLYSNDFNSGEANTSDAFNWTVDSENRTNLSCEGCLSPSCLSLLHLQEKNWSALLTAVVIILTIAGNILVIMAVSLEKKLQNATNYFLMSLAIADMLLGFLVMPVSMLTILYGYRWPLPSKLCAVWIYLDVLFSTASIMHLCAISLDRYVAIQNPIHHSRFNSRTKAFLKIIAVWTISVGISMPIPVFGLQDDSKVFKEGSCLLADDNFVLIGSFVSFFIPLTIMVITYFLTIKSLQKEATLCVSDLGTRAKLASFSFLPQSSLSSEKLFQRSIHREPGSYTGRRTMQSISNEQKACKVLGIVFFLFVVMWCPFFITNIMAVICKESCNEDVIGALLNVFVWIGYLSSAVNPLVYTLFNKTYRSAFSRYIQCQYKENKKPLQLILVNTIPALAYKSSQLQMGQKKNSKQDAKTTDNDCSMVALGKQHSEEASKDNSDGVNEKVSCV
Sequence of Adenosine receptor A3 (Homo sapiens) (P0DMS8 whole entry): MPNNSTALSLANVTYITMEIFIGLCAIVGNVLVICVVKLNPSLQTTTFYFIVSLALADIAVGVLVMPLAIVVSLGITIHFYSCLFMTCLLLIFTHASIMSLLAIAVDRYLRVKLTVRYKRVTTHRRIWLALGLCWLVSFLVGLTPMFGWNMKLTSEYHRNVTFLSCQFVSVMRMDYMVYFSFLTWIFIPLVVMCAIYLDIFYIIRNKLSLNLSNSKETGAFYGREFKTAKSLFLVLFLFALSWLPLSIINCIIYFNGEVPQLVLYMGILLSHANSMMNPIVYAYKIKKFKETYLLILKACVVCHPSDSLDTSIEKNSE

## Cn1ccc2c(Nc3cccc(Cl)c3)ncc(C(=O)N3CCOCC3)c21
[1]
  Activity: < 10%
[2]
  concentration at 120 h: 1.8 µM
[3]
  Activity: < 10%
[4]
  Activity: 15%
[5]
  pKa: 6.1
[6]
  IC50: 21 µM
[7]
  concentration at 1 h: 8.6 µM
[8]
  Activity: < 10%
[9]
  concentration at 0.8 h: 1.1 µM
[10]
  IC50: 24 µM
[11]
  Activity: < 10%
[12]
  solubility: 590 µg/mL (≈ 1590 µM)
[13]
  minimal effective dose: 3 mg/kg
[14]
  EC50: 6.3 µM
[15]
  concentration at 120 h: 6.1 µM
[16]
  ED50: 0.02 mg/kg
[17]
  Kp at 12 h: 1.04
[18]
  Activity: < 10%
[19]
  CLint scaled: < 0.6 mL/min/kg
[20]
  Efficacy: 88%
[21]
  Activity: 11%
[22]
  Activity: < 10%
[23]
  bioavailability: 82%
[24]
  Activity: < 10%
[25]
  Activity: < 10%
[26]
  Activity: Non-toxic
[27]
  Activity: < 10%
[28]
  EC50: 0.005 µM
[29]
  Activity: Active
[30]
  Activity: < 10%
[31]
  Activity: < 10%
[32]
  concentration at 5 h: 12.3 µM
[33]
  Efficacy: 100%
[34]
  Kp at 3 h: 1
[35]
  Activity: < 10%
[36]
  Activity: < 10%
[37]
  Activity: < 10%
[38]
  concentration at 1 h: 0.097 µM
[39]
  Ratio: 2.9
[40]
  Kp at 1 h: 1
[41]
  Activity: 11%
[42]
  Activity: < 10%
[43]
  Activity: < 10%
[44]
  Activity: Active
[45]
  Activity: < 10%
[46]
  Activity: < 10%
[47]
  Activity: 24%
[48]
  Activity: 25%
